Values joined by “and” are separate entries in the source; they are usually repeats but may differ in a detail not shown here. Identical values can stand only once. Like-named read-outs stand apart in the source and are kept apart here.
Legend:
[1] = molecular target: T1, CDK2-CYCLINE (Homo sapiens, UniProt P24941); assay: CDK inhibition assay (microfluidic LabChip, IC50 format); format: biochemical; conditions: Table 3; purified enantiomers; read-out: CDK2-E (E1/E2)
T1 construct: purchased Millipore

[2] = molecular target: CDK4-CYCLIND1 (Homo sapiens, UniProt P11802); assay: as above
Chain of CDK4-CYCLIND1 (P11802 whole entry): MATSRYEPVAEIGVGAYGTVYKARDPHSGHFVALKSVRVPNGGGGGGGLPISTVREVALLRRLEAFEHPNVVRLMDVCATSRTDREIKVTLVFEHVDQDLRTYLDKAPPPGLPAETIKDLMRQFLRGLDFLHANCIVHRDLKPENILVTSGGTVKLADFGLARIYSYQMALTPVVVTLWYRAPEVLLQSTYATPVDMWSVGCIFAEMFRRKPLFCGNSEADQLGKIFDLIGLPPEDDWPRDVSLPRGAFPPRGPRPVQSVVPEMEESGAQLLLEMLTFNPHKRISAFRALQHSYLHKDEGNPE
Chain of CDK4-CYCLIND1 (P24385 whole entry partner): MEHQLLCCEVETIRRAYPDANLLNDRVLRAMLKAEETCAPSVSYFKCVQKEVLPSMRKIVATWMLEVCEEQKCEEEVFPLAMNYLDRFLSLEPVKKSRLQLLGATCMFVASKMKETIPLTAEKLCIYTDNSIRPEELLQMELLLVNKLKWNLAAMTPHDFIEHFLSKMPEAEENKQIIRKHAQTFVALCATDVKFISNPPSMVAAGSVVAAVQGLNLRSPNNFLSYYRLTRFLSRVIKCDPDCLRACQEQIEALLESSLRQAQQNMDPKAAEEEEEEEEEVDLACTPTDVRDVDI

[3] = molecular target: T2, CDK6-CYCLIND3 (Homo sapiens, UniProt Q00534); assay: as above; format: biochemical
T2 construct: purchased Carna
T2 sequence (Q00534 whole entry): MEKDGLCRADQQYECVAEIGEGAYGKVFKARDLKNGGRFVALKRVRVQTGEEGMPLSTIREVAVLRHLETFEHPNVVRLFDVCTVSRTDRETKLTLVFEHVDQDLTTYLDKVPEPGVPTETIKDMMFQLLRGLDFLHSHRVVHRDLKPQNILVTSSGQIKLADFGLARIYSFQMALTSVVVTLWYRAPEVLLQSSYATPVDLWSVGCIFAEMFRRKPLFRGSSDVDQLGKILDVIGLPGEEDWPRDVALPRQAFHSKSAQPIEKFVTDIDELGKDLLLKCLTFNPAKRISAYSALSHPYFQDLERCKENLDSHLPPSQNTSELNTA
T2 sequence (P30281 whole entry partner): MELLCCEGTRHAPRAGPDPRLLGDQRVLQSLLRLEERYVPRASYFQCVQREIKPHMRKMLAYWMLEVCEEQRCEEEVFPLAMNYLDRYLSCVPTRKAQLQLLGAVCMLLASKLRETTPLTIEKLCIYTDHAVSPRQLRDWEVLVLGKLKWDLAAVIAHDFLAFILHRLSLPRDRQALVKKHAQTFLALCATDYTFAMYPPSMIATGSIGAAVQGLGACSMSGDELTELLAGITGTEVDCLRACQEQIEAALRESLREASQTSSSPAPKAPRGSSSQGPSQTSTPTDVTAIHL

[4] = molecular target: T3, CDK2-CYCLINA (Homo sapiens, UniProt P24941); assay: as above; format: biochemical
T3 construct: purchased Millipore

[5] = molecular target: CDK7 CyclinH (Homo sapiens, UniProt P50613); assay: as above; format: biochemical
Chain of CDK7 CyclinH (P50613 whole entry): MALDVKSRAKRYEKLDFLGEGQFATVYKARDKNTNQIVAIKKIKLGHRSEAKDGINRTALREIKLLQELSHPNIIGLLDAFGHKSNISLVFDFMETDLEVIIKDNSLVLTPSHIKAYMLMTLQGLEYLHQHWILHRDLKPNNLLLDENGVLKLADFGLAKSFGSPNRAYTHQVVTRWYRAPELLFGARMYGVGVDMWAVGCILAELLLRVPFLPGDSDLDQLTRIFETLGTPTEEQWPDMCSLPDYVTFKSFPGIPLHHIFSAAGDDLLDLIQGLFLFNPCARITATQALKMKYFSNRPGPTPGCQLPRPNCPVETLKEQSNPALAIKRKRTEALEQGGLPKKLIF
Chain of CDK7 CyclinH (P51946 whole entry partner): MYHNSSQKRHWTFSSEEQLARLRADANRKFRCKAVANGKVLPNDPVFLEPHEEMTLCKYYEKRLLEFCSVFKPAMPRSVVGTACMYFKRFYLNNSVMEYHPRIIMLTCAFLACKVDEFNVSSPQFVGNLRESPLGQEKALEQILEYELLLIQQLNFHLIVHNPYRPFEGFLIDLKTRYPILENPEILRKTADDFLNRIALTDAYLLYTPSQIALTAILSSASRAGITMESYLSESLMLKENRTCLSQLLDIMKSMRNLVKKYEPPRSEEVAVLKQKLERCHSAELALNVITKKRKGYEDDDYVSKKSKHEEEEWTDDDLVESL
Chain of CDK7 CyclinH (P51948 whole entry partner): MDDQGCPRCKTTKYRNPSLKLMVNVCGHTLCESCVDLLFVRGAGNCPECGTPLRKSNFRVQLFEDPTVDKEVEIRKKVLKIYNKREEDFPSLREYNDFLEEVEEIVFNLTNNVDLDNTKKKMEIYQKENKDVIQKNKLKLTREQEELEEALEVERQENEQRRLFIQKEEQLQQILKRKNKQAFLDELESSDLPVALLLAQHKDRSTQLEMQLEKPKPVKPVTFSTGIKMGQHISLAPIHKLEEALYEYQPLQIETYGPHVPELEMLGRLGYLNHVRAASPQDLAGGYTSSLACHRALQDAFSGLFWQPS

[6] = molecular target: CDK1/B (Homo sapiens, UniProt P06493); assay: as above; format: biochemical
Chain of CDK1/B (P06493 whole entry, species assumed): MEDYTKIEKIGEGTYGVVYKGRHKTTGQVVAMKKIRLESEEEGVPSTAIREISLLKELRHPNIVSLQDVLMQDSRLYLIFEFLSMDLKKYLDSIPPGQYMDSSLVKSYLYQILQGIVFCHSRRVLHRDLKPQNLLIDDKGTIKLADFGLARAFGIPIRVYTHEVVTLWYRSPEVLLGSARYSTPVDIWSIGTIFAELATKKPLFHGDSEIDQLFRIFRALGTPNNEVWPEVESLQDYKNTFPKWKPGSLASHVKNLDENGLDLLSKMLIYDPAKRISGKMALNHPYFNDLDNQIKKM
Chain of CDK1/B (P14635 whole entry partner, species assumed): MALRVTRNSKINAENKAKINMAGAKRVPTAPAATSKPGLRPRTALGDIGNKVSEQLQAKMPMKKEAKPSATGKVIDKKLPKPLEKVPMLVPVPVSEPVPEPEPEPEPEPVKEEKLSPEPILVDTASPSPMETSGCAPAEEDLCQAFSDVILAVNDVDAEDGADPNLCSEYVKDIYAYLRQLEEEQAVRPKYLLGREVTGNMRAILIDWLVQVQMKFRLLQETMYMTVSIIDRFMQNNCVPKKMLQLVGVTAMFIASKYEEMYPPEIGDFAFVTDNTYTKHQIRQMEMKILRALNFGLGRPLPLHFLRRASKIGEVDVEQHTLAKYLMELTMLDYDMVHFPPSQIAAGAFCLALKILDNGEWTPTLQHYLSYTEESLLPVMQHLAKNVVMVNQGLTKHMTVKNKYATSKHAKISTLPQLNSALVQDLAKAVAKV

[7] = molecular target: T4, CDK9-CYCLINT1 (Homo sapiens, UniProt P50750); assay: as above; format: biochemical; conditions: read-out: CDK9 CyclinT1 IC50
T4 construct: purchased Carna
T4 sequence (P50750 whole entry): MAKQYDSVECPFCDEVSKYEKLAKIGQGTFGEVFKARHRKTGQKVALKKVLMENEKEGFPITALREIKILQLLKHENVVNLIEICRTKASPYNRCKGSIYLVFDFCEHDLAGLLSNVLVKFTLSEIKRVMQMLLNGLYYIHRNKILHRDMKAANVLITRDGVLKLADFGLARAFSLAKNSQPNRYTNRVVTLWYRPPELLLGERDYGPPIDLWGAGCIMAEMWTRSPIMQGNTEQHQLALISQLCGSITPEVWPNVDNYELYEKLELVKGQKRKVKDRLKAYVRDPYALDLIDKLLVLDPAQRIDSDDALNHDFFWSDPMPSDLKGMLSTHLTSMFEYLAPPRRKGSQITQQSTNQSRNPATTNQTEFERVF
T4 sequence (O60563 whole entry partner): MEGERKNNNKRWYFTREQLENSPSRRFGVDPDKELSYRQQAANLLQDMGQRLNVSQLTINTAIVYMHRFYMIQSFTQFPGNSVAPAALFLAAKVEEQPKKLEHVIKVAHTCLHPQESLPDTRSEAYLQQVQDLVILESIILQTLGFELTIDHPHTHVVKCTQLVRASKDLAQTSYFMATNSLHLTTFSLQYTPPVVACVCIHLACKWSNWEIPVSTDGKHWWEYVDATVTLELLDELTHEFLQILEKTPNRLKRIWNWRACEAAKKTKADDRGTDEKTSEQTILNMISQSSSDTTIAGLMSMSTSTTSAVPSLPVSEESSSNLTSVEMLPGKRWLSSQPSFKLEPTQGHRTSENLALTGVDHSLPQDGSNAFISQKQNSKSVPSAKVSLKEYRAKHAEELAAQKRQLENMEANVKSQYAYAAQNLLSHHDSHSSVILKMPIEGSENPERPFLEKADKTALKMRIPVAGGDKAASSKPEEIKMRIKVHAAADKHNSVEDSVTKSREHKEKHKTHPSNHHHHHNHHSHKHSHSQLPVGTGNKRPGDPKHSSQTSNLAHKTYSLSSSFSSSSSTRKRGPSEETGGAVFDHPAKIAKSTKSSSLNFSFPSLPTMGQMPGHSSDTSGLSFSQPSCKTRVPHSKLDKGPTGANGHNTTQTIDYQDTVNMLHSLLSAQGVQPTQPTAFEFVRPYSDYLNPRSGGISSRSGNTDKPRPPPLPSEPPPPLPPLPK

[8] = test system: LEXFAM MV4-11; assay: 2D cell proliferation assay (CellTiter-Blue); format: cell-based; conditions: Homo sapiens, 72 h, three days of treatment, read-out: abs. IC50
Method: (§1) Viability of the cells was analyzed by using the CellTiter-Blue® Cell Viability Assay (Promega), and was performed according to manufacturer's instructions. Briefly, cells were harvested from exponential phase cultures (Chapter 6.6), counted and plated in 96-well flat-bottom microtiter plates at a cell density of 4,000-60,000 cells/well in a volume of 140 μl per well. After a 24 hours recovery period, 10 μL cell culture medium (six control wells/plate) or culture medium with test compound were added (Chapter 6.2). The compounds were applied at five concentrations in full-log increments up to 100 μM in duplicate. Cultures were incubated at 37° C. and 5% CO2 in a humidified atmosphere for another three days. After three days of treatment, 20 μl/well CellTiter-Blue® reagent was added. Following incubation with CellTiter-Blue® reagent for up to four hours, fluorescence (FU) was measured by using the Enspire Multimode Plate Reader (excitation λ=570 nm, emission λ=600 nm). For calculations, the mean values of duplicate/sextuplicate (untreated control) data were used.
(§2) An assay was considered fully evaluable if the following quality control criteria were fulfilled: • control/background ratio>3.0-Z′-factor calculated within the assay plate>0.5 [7]—coefficient of variation in the growth control wells <30%
(§3) Drug effects were expressed in terms of the percentage of the fluorescence signal, obtained by comparison of the mean signal in the treated wells with the mean signal of the untreated controls (expressed by the test-versus-control value, T/C-value [%]):
(§4) IC values are reported as relative IC50 values and absolute IC50 and IC70 values. […] The absolute IC70 value gives the concentration of the test compound that achieves T/C=30%. The relative IC50 value is the concentration of test compound that gives a response halfway between the top and bottom plateau of the sigmoidal concentration-response curve (inflection point of the curve). Calculation was done by 4parameter non-linear curve fit (Oncotest Data Warehouse Software).
(§5) If an IC50 or IC70 value could not be determined within the examined dose range (because a compound was either too active or lacked activity), the lowest or highest concentration studied was used for calculation of the geometric mean value.

[9] = test system: LXFL NCl-H1299; assay: 2D cell proliferation assay (CellTiter-Blue); format: cell-based; conditions: 72 h, three days of treatment, read-out: abs. IC50
Method: as §1, §2, §3, §4, §5

[10] = test system: MEXF WM-266-4; assay: 2D cell proliferation assay (CellTiter-Blue); format: cell-based; conditions: Homo sapiens, 72 h, three days of treatment, read-out: abs. IC50
Method: as §1, §2, §3, §4, §5

[11] = test system: MAXFLB MCF7 (ER+); assay: 2D cell proliferation assay (CellTiter-Blue); format: cell-based; conditions: Homo sapiens, 72 h, three days of treatment, read-out: abs. IC50
Method: as §1, §2, §3, §4, §5

[12] = test system: LXFA A549; assay: 2D cell proliferation assay (CellTiter-Blue); format: cell-based; conditions: Homo sapiens, 72 h, three days of treatment, read-out: abs. IC50
Method: as §1, §2, §3, §4, §5

[13] = test system: MAXFTN ZR-75-1 (ER+); assay: 2D cell proliferation assay (CellTiter-Blue); format: cell-based; conditions: Homo sapiens, 72 h, three days of treatment, read-out: abs. IC50
Method: as §1, §2, §3, §4, §5

[14] = test system: all cell lines tested; assay: 2D cell proliferation assay, geometric mean over the cell line panel; format: cell-based; conditions: Table 5 lower part; geometric mean over the 8-line panel; read-out: Geomean abs. IC50 value
Method: as §1, §4, §5
The overall potency of a compound was determined by the geometric mean IC50/IC70 values of all individual IC50/IC70 values. In the heatmap representation of IC50 and IC70 values, the distribution of the IC50 or IC70 values obtained for a test compound in the individual cell lines is given in relation to the geometric mean IC50 or IC70 value, obtained over all PDX models tested. The individual IC values range from 1/32-fold geometric mean IC (corresponding to very potent compound activity or high tumor sensitivity) to 32-fold geometric mean IC (corresponding to lack of compound activity or tumor resistance). The heatmap presentation, therefore, represents an antiproliferative “fingerprint” profile of a test compound.

[15] = CDK4 CyclinD1 IC50, Table 4b, lower part, a second value in parentheses for some compounds
[16] = Table 4b, lower part, read-out: CDK2 CyclinA IC50
[17] = CDK4 CyclinD1 IC50, Table 4a, a second value in parentheses for some compounds
[18] = Table 4a, read-out: CDK2 CyclinA IC50
[19] = Table 4a, read-out: CDK6 CyclinD3 IC50

Row | SMILES | IC50 ([5]; Table 4b, lower part) [nM] | IC50 ([6]; Table 4b, lower part) [nM] | IC50 ([7]; Table 4b, lower part) [nM] | IC50 [2, 15] [nM] | IC50 [4, 16] [nM] | IC50 ([5]; Table 4a) [nM] | IC50 ([7]; Table 4a) | IC50 [4, 18] | also measured
1 | CC(C)N1CCN(c2ccc(Nc3ncc4c(n3)N(C3CCCC3)C(=O)[C@@]3(CCNC3=O)C4)cc2F)CC1 [Example D53, (R)-8-cyclopentyl-2-((3-fluoro-4-(4-isopropylpiperazin-1-yl)phenyl)amino) -5,8-dihydro-7H-spiro[pyrido[2,3-d]pyrimidine-6,3′-pyrrolidine]-2′,7-dione] | – | – | – | – | – | – | – | – | IC50 [1]: 12100 nM; IC50 ([2]; CDK4 (E1/E2), Table 3, purified enantiomers): 178 nM; IC50 ([3]; Table 3, purified enantiomers, read-out: CDK6 (E1/E2)): 384 nM; IC50 ([4]; Table 3, purified enantiomers, read-out: CDK2-A (E1/E2)): 9670 nM
2 | CS(=O)(=O)N1CCC(Nc2ncc3c(n2)N(C2CCCC2)C(=O)[C@]2(CCNC2=O)C3)CC1 [Example D117, (S)-8-cyclopentyl-2-((1-(methylsulfonyl)piperidin-4-yl)amino)-5,8-dihydro-7H-spiro[pyrido[2,3-d]pyrimidine-6,3′-pyrrolidine]-2′,7-dione] | 215 | 4.46 | 3.51 | < 3.2 | < 3.2 | – | – | – | –
3 | CS(=O)(=O)N1CCC(Nc2ncc3c(n2)N(C24CC(C2)C4)C(=O)[C@]2(CCNC2=O)C3)CC1 [Example D123, (S)-8-(bicyclo[1.1.1]pentan-1-yl)-2-((1-(methylsulfonyl)piperidin-4-yl)amino)-5,8-dihydro-7H-spiro[pyrido[2,3-d]pyrimidine-6,3′-pyrrolidine]-2′,7-dione] | 880 | 22 | 19.3 | < 3.2 | 4.19 | – | – | – | –
4 | C[C@]1(O)CC[C@@H](Nc2ncc3c(n2)N(C2CCCC2)C(=O)[C@]2(CCNC2=O)C3)CC1 [Example D126, (S)-8-cyclopentyl-2-(((1s,4R)-4-hydroxy-4-methylcyclohexyl)amino)-5,8-dihydro-7H-spiro[pyrido[2,3-d]pyrimidine-6,3′-pyrrolidine]-2′,7-dione] | > 10000 | 2200 | 25.4 | 22.7 | 803 | – | – | – | –
5 | CN1CCC(c2ccc(Nc3ncc4c(n3)N(C3CCCC3)C(=O)[C@]3(CCNC3=O)C4)cc2)CC1 [Example D135, (S)-8-cyclopentyl-2-((4-(1-methylpiperidin-4-yl)phenyl)amino)-5,8-dihydro-7H-spiro[pyrido[2,3-d]pyrimidine-6,3′-pyrrolidine]-2′,7-dione] | 222 | 205 | 4.31 | < 3.2 | 89.8 | – | – | – | –
6 | CN(C)CCOc1ccc(Nc2ncc3c(n2)N(C2CCCC2)C(=O)[C@]2(CCNC2=O)C3)nc1 [Example D138, (S)-8-cyclopentyl-2-((5-(2-(dimethylamino)ethoxy)pyridin-2-yl)amino)-5,8-dihydro-7H-spiro[pyrido[2,3-d]pyrimidine-6,3′-pyrrolidine]-2′,7-dione] | – | – | – | – | – | > 10000 | 204 nM | > 10000 nM | IC50 ([6]; Table 4a): > 10000 nM; IC50 [2, 17]: 4.58 nM
7 | CN1CCN(c2ccc(Nc3ncc4c(n3)N(C3CCCC3)C(=O)[C@]3(CCNC3=O)C4)cc2)CC1 [Example D144, (S)-8-cyclopentyl-2-((4-(4-methylpiperazin-1-yl)phenyl)amino)-5,8-dihydro-7H-spiro[pyrido[2,3-d]pyrimidine-6,3′-pyrrolidine]-2′,7-dione] | – | – | – | – | – | 229 | 4.84 nM | 29.2 nM | IC50 [8]: 10 nM; IC50 [9]: 219 nM; IC50 [10]: 358 nM; IC50 [11]: 114 nM; IC50 [12]: 1290 nM; IC50 [13]: 100000 nM; IC50 [14]: 475 nM; IC50 [3, 19]: 1.54 nM
8 | CC(C)N1CCN(c2ccc(Nc3ncc4c(n3)N(C3CCCC3)C(=O)[C@]3(CCNC3=O)C4)c(F)c2)CC1 [Example D148, (S)-8-cyclopentyl-2-((2-fluoro-4-(4-isopropylpiperazin-1-yl)phenyl)amino)-5,8-dihydro-7H-spiro[pyrido[2,3-d]pyrimidine-6,3′-pyrrolidine]-2′,7-dione] | – | – | – | – | – | > 100000 | 6250 nM and 987 nM | 83200 nM and > 10000 nM | IC50 ([6]; Table 4a): > 10000 nM; IC50 [2, 17]: 1270 nM and 188 nM; IC50 [3, 19]: 4670 nM
9 | Cc1cc(Nc2ncc3c(n2)N(C2CCCC2)C(=O)[C@]2(CCNC2=O)C3)ccc1N1CCN(C(C)C)CC1 [Example D158, (S)-8-cyclopentyl-2-((4-(4-isopropylpiperazin-1-yl)-3-methylphenyl)amino)-5,8-dihydro-7H-spiro[pyrido[2,3-d]pyrimidine-6,3′-pyrrolidine]-2′,7-dione] | – | – | – | – | – | 120 | 5.25 nM | 22.2 nM | IC50 [8]: 38 nM; IC50 [9]: 257 nM; IC50 [10]: 451 nM; IC50 [11]: 55 nM; IC50 [12]: 554 nM; IC50 [13]: 5520 nM; IC50 [14]: 301 nM; IC50 [2, 17]: 1.04 nM; IC50 [3, 19]: 2.17 nM
10 | CC1CN(c2ccc(Nc3ncc4c(n3)N(C3CCCC3)C(=O)[C@]3(CCNC3=O)C4)cc2)CC(C)N1 (stereo partly drawn) [Example D199, (6S)-8-cyclopentyl-2-((4-(3,5-dimethylpiperazin-1-yl)phenyl)amino)-5,8-dihydro-7H-spiro[pyrido[2,3-d]pyrimidine-6,3′-pyrrolidine]-2′,7-dione] | 406 | 353 | 3.74 | < 3.2 | 74.6 | – | – | – | –
11 | CC1CN(c2ccc(Nc3ncc4c(n3)N(C35CC(C3)C5)C(=O)[C@]3(CCNC3=O)C4)cc2)CC(C)N1 (stereo partly drawn) [Example D200, (6S)-8-(bicyclo[1.1.1]pentan-1-yl)-2-((4-(3,5-dimethylpiperazin-1-yl)phenyl)amino)-5,8-dihydro-7H-spiro[pyrido[2,3-d]pyrimidine-6,3′-pyrrolidine]-2′,7-dione] | 3770 | 8670 | 72.6 | 39.7 | 3420 | – | – | – | –
12 | CC(C)C1CCN(c2ccc(Nc3ncc4c(n3)N(C3CCCC3)C(=O)[C@]3(CCNC3=O)C4)cc2)CC1 [Example D201, (S)-8-cyclopentyl-2-((4-(4-isopropylpiperidin-1-yl)phenyl)amino)-5,8-dihydro-7H-spiro[pyrido[2,3-d]pyrimidine-6,3′-pyrrolidine]-2′,7-dione] | 2970 | 2850 | 7.85 | 5.04 | 424 | – | – | – | –
13 | O=C1NCC[C@@]12Cc1cnc(Nc3ccc(N4CCN(C5CC5)CC4)cc3)nc1N(C1CCCC1)C2=O [Example D202, (S)-8-cyclopentyl-2-((4-(4-cyclopropylpiperazin-1-yl)phenyl)amino)-5,8-dihydro-7H-spiro[pyrido[2,3-d]pyrimidine-6,3′-pyrrolidine]-2′,7-dione] | 276 | 295 | > 10000 | < 3.2 | 40.4 | – | – | – | –
